Experimental data from ChEMBL document CHEMBL3885861, “Open TG-GATES”.

Species on record: Rattus norvegicus
Assay: Open TG-GATES - Regimen: Daily Repeat
Assay type: toxicity, organism-based, Sprague-Dawley
Set-up: regimen Daily Repeat, gender Male, age 6 weeks
Settings: in vivo, po, 2000 mg/kg, route gavage, dose level High; for Bas / Eos / Hb / Ht / Lym / MCH / MCHC / MCV / Mono / Neu / Plat / RBC / Ret / WBC: tissue Blood; for KIDNEY_L / KIDNEY_R / KIDNEY_TOTAL: tissue Kidney; for LIVER: tissue Liver; for A/G / ALP / ALT / AST / BUN / CRE / Ca / Cl / DBIL / GLC / IP / K / LDH / Na / PL / RALB / TBIL / TC / TG / TP / gamma-GTP: tissue Plasma

CC(N)=O [ACETAMIDE]
TERMINAL_BW (72 h, time 3 day): 234.1 g | Bas (72 h, time 3 day): 0% | Eos (72 h, time 3 day): 0.4% | Hb (72 h, time 3 day): 13 g/dL | Ht (72 h, time 3 day): 40% | Lym (72 h, time 3 day): 78% | MCH (72 h, time 3 day): 20.1 pg | MCHC (72 h, time 3 day): 32.6% | MCV (72 h, time 3 day): 61.7 fL | Mono (72 h, time 3 day): 5.2% | Neu (72 h, time 3 day): 14.4% | Plat (72 h, time 3 day): 119.8 x10_4/uL | RBC (72 h, time 3 day): 647.8 x10_4/ul | Ret (72 h, time 3 day): 7.6% | WBC (72 h, time 3 day): 106.6 x10_2/uL | KIDNEY_L (72 h, time 3 day): 1.1 g | KIDNEY_R (72 h, time 3 day): 1.1 g | KIDNEY_TOTAL (72 h, time 3 day): 2.2 g | LIVER (72 h, time 3 day): 10.9 g | A/G (72 h, time 3 day): 1 | ALP (72 h, time 3 day): 1650 IU/L | ALT (72 h, time 3 day): 60.6 IU/L | AST (72 h, time 3 day): 95.2 IU/L | BUN (72 h, time 3 day): 18.4 mg/dL | CRE (72 h, time 3 day): 0.1 mg/dL | Ca (72 h, time 3 day): 10.9 mg/dL | Cl (72 h, time 3 day): 103.7 meq/L | DBIL (72 h, time 3 day): 0.006 mg/dL | GLC (72 h, time 3 day): 187.4 mg/dL | IP (72 h, time 3 day): 7.5 mg/dL | K (72 h, time 3 day): 4.2 meq/L | LDH (72 h, time 3 day): 200.2 IU/L | Na (72 h, time 3 day): 140.6 meq/L | PL (72 h, time 3 day): 160.4 mg/dL | RALB (72 h, time 3 day): 2.8 g/dL | TBIL (72 h, time 3 day): 0.014 mg/dL | TC (72 h, time 3 day): 79.2 mg/dL | TG (72 h, time 3 day): 94.6 mg/dL | TP (72 h, time 3 day): 5.5 g/dL | gamma-GTP (72 h, time 3 day): 1 IU/L | TERMINAL_BW ([…], time 7 day): 255.2 g | TERMINAL_BW ([…], time 14 day): 310 g | TERMINAL_BW ([…], time 28 day): 403 g | Bas ([…], time 7 day): 0% | Eos ([…], time 7 day): 1% | Hb ([…], time 7 day): 13.7 g/dL | Ht ([…], time 7 day): 41.1% | Lym ([…], time 7 day): 78.2% | MCH ([…], time 7 day): 19.5 pg | MCHC ([…], time 7 day): 33.4% | MCV ([…], time 7 day): 58.4 fL | Mono ([…], time 7 day): 4% | Neu ([…], time 7 day): 15.2% | Plat ([…], time 7 day): 89.2 x10_4/uL | RBC ([…], time 7 day): 704.6 x10_4/ul | Ret ([…], time 7 day): 4.4% | WBC ([…], time 7 day): 108.9 x10_2/uL | Bas ([…], time 14 day): 0% | Eos ([…], time 14 day): 0.4% | Hb ([…], time 14 day): 14 g/dL | Ht ([…], time 14 day): 41.6% | Lym ([…], time 14 day): 84.8% | MCH ([…], time 14 day): 19.6 pg | MCHC ([…], time 14 day): 33.6% | MCV ([…], time 14 day): 58.2 fL | Mono ([…], time 14 day): 2.4% | Neu ([…], time 14 day): 10.6% | Plat ([…], time 14 day): 101.3 x10_4/uL | RBC ([…], time 14 day): 713.8 x10_4/ul | Ret ([…], time 14 day): 4.1% | WBC ([…], time 14 day): 156.4 x10_2/uL | Bas ([…], time 28 day): 0% | Eos ([…], time 28 day): 0.8% | Hb ([…], time 28 day): 14.8 g/dL | Ht ([…], time 28 day): 44% | Lym ([…], time 28 day): 78.8% | MCH ([…], time 28 day): 19.4 pg | MCHC ([…], time 28 day): 33.8% | MCV ([…], time 28 day): 57.6 fL | Mono ([…], time 28 day): 3% | Neu ([…], time 28 day): 15.6% | Plat ([…], time 28 day): 88.6 x10_4/uL | RBC ([…], time 28 day): 763.8 x10_4/ul | Ret ([…], time 28 day): 2.6% | WBC ([…], time 28 day): 121.1 x10_2/uL | KIDNEY_L ([…], time 7 day): 1.1 g | KIDNEY_R ([…], time 7 day): 1.1 g | KIDNEY_TOTAL ([…], time 7 day): 2.3 g | KIDNEY_L ([…], time 14 day): 1.3 g | KIDNEY_R ([…], time 14 day): 1.3 g | KIDNEY_TOTAL ([…], time 14 day): 2.6 g | KIDNEY_L ([…], time 28 day): 1.5 g | KIDNEY_R ([…], time 28 day): 1.6 g | KIDNEY_TOTAL ([…], time 28 day): 3.1 g | LIVER ([…], time 7 day): 10.6 g | LIVER ([…], time 14 day): 11.7 g | LIVER ([…], time 28 day): 14.4 g | A/G ([…], time 7 day): 1 | ALP ([…], time 7 day): 2391.2 IU/L | ALT ([…], time 7 day): 74.6 IU/L | AST ([…], time 7 day): 114.4 IU/L | BUN ([…], time 7 day): 18.5 mg/dL | CRE ([…], time 7 day): 0.2 mg/dL | Ca ([…], time 7 day): 10.5 mg/dL | Cl ([…], time 7 day): 103.1 meq/L | DBIL ([…], time 7 day): 0.02 mg/dL | GLC ([…], time 7 day): 194.8 mg/dL | IP ([…], time 7 day): 5.9 mg/dL | K ([…], time 7 day): 4.2 meq/L | LDH ([…], time 7 day): 251.2 IU/L | Na ([…], time 7 day): 141.3 meq/L | PL ([…], time 7 day): 170.8 mg/dL | RALB ([…], time 7 day): 2.8 g/dL | TBIL ([…], time 7 day): 0.028 mg/dL | TC ([…], time 7 day): 89.8 mg/dL | TG ([…], time 7 day): 94 mg/dL | TP ([…], time 7 day): 5.6 g/dL | gamma-GTP ([…], time 7 day): 1.1 IU/L | A/G ([…], time 14 day): 0.9 | ALP ([…], time 14 day): 1866.6 IU/L | ALT ([…], time 14 day): 90.6 IU/L | AST ([…], time 14 day): 159.8 IU/L | BUN ([…], time 14 day): 17.1 mg/dL | CRE ([…], time 14 day): 0.2 mg/dL | Ca ([…], time 14 day): 10.1 mg/dL | Cl ([…], time 14 day): 103.9 meq/L | DBIL ([…], time 14 day): 0.054 mg/dL | GLC ([…], time 14 day): 187.8 mg/dL | IP ([…], time 14 day): 6 mg/dL | K ([…], time 14 day): 4.2 meq/L | LDH ([…], time 14 day): 232.2 IU/L | Na ([…], time 14 day): 141.6 meq/L | PL ([…], time 14 day): 156.2 mg/dL | RALB ([…], time 14 day): 2.7 g/dL | TBIL ([…], time 14 day): 0.07 mg/dL | TC ([…], time 14 day): 87.2 mg/dL | TG ([…], time 14 day): 77.7 mg/dL | TP ([…], time 14 day): 5.5 g/dL | gamma-GTP ([…], time 14 day): 1.6 IU/L | A/G ([…], time 28 day): 0.9 | ALP ([…], time 28 day): 1427.6 IU/L | ALT ([…], time 28 day): 55.6 IU/L | AST ([…], time 28 day): 87.4 IU/L | BUN ([…], time 28 day): 18 mg/dL | CRE ([…], time 28 day): 0.2 mg/dL | Ca ([…], time 28 day): 10.2 mg/dL | Cl ([…], time 28 day): 104.2 meq/L | DBIL ([…], time 28 day): 0.01 mg/dL | GLC ([…], time 28 day): 199 mg/dL | IP ([…], time 28 day): 5.3 mg/dL | K ([…], time 28 day): 4.1 meq/L | LDH ([…], time 28 day): 286.2 IU/L | Na ([…], time 28 day): 141.9 meq/L | PL ([…], time 28 day): 136.2 mg/dL | RALB ([…], time 28 day): 2.8 g/dL | TBIL ([…], time 28 day): 0.01 mg/dL | TC ([…], time 28 day): 65.8 mg/dL | TG ([…], time 28 day): 102.2 mg/dL | TP ([…], time 28 day): 6 g/dL | gamma-GTP ([…], time 28 day): 0.8 IU/L
